The term inhibition denotes how much of the control response was suppressed. By IC50 is commonly meant the concentration that gives 50% inhibition. A higher IC50 goes with lower potency.

Each structure is given as a SMILES string.

One assay concerns the target T1, Prostaglandin G/H synthase 1 (Ovis aries) (UniProt P05979).
T1 sequence (whole entry): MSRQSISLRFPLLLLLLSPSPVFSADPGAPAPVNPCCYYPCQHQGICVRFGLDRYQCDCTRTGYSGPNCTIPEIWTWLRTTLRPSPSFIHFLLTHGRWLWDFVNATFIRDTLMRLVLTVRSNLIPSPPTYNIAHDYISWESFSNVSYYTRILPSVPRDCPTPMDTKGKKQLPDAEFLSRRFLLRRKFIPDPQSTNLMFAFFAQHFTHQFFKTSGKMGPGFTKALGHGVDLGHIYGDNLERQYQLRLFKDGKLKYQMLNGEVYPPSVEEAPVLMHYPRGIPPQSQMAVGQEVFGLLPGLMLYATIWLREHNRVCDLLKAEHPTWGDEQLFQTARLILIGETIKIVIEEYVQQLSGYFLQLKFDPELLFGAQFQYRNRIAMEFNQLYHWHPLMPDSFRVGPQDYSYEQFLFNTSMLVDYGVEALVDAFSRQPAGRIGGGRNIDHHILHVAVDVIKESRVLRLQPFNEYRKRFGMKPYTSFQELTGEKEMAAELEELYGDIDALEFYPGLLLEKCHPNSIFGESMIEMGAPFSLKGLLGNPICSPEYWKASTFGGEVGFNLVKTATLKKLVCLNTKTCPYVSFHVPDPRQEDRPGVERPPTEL
Put plainly: Inhibition of ovine COX1 at 100 uM after 5 mins by microplate reader assay.
`Cc1ccc(C(=O)Nc2ccc(Cl)cc2Cl)cn1` displayed an inhibition of 38%.
On the same count and under the same terms, to `O=C(Nc1ccc(Br)cc1)c1cncc(Br)c1` belongs 5%; to `COc1ccc(NC(=O)c2cccnc2O)cc1`, 42%; to `O=C(Nc1ccc(Br)cc1)c1cnc(O)c(Cl)c1`, 58%.
On the same count and under the same terms, to `COc1ccc(NC(=O)c2ccc(O)nc2)cc1` belongs 53%; to `Cc1ccc(C(=O)Nc2cc(Cl)cc(Cl)c2)cn1`, 20%.
On the same count and under the same terms, to `O=C(Nc1ccc(F)cc1)c1cnc(O)c(Cl)c1` belongs 90%; to `O=C(Nc1ccc(Cl)cc1)c1ccc(Cl)nc1`, 42%.
For the molecule `O=C(Nc1ccc(Br)cc1)c1ccc(Cl)nc1`, the inhibition is 18%.
Still for that read-out and setting: to `Cc1ccc(C(=O)Nc2ccc(F)cc2)cn1` belongs 59%; to `COc1ccc(NC(=O)c2cnc(O)c(Cl)c2)cc1`, 64%; to `O=C(Nc1ccc(Cl)cc1)c1cnc(O)c(Cl)c1`, 84%.
On the same count and under the same terms, to `O=C(Nc1ccc(Cl)cc1Cl)c1cncc(Br)c1` belongs 19%; to `COc1ccc(NC(=O)c2cncc(Br)c2)cc1`, 0%.
Same read-out and setting: to `O=C(Nc1ccc(Cl)cc1Cl)c1cnc(O)c(Cl)c1` belongs 72%.
For the molecule `Cc1ccc(NC(=O)c2ccc(C)nc2)cc1`, the inhibition turned out to be 10%.
On the same count and under the same terms, to `O=C(Nc1ccc(F)cc1)c1cnc(Cl)c(Cl)c1` belongs 45%.
Same read-out and setting: to `O=C(Nc1cc(Cl)cc(Cl)c1)c1cnc(Cl)c(Cl)c1` belongs 34%; to `O=C(Nc1ccc(Br)cc1)c1cnc(Cl)c(Cl)c1`, 33%; to `O=C(Nc1ccc(Br)cc1)c1ccc(O)nc1`, 64%.
On the same count and under the same terms, to `Cc1ccc(NC(=O)c2cnc(Cl)c(Cl)c2)cc1` belongs 37%; to `O=C(Nc1ccc(F)cc1)c1cccnc1O`, 64%; to `Cc1ccc(NC(=O)c2cnc(O)c(Cl)c2)cc1`, 50%.
Consider `O=C(Nc1ccc(Cl)cc1)c1ccc(O)nc1`, for which the inhibition turned out to be 75%.
The same measure, in the same setting: to `O=C(Nc1ccc(F)cc1)c1ccc(O)nc1` belongs 78%.
On the same count and under the same terms, to `Cc1ccc(C(=O)Nc2ccc(Br)cc2)cn1` belongs 35%; to `O=C(Nc1ccc(Cl)cc1)c1cncc(Br)c1`, 13%.
The same measure, in the same setting: to `Cc1ccc(NC(=O)c2ccc(O)nc2)cc1` belongs 40%.
As to `COc1ccc(NC(=O)c2ccc(Cl)nc2)cc1`, the inhibition stood at 38%.
Consider `O=C(Nc1cccc(Cl)c1)c1cccnc1O`, for which the inhibition worked out at 35%.
On the same count and under the same terms, to `Cc1ccc(C(=O)Nc2ccc(Cl)cc2)cn1` belongs 45%.
Same read-out and setting: to `Cc1ccc(NC(=O)c2ccc(Cl)nc2)cc1` belongs 25%.
Same read-out and setting: to `O=C(Nc1ccc(F)cc1)c1ccc(Cl)nc1` belongs 41%; to `O=C(Nc1cc(Cl)cc(Cl)c1)c1cnc(O)c(Cl)c1`, 63%.
`O=C(Nc1ccc(Br)cc1)c1cccnc1O`: the inhibition was found to be 47%.
The same measure, in the same setting: to `O=C(Nc1ccc(Cl)cc1)c1cccnc1O` belongs 60%; to `O=C(Nc1ccc(Cl)cc1Cl)c1cnc(Cl)c(Cl)c1`, 40%.
Same read-out and setting: to `Cc1ccc(NC(=O)c2cccnc2O)cc1` belongs 28%; to `COc1ccc(NC(=O)c2ccc(C)nc2)cc1`, 26%; to `O=C(Nc1ccc(Cl)cc1)c1cnc(Cl)c(Cl)c1`, 42%.

In a further assay the target is T2, Prostaglandin G/H synthase 1 (Ovis aries, UniProt P05979).
T2 sequence (P05979 whole entry): T1 sequence (whole entry)
Put plainly: Inhibition of ovine COX1 after 5 mins by microplate reader assay.
`O=C(Nc1ccc(Br)cc1)c1cnc(O)c(Cl)c1`: 74 µM corresponded to half-maximal inhibition (IC50). This counts as double-digit micromolar.
The same measure, in the same setting: to `Cc1ccc(C(=O)Nc2ccc(F)cc2)cn1` belongs 70 µM; to `O=C(Nc1ccc(Br)cc1)c1ccc(=O)[nH]c1`, 30 µM; to `O=C(Nc1ccc(Cl)cc1Cl)c1cnc(O)c(Cl)c1`, 16 µM.
For the molecule `O=C(Nc1ccc(F)cc1)c1c[nH]c(=O)c(Cl)c1`, the half-inhibitory concentration (IC50) came out at 0.68 µM.
Still for that read-out and setting: to `O=C(Nc1ccc(Cl)cc1)c1ccc(O)nc1` belongs 9.2 µM; to `O=C(Nc1ccc(F)cc1)c1ccc(O)nc1`, 3.5 µM.
Turning to `COc1ccc(NC(=O)c2c[nH]c(=O)c(Cl)c2)cc1`, the IC50 is 44 µM. Compared with the last molecule, the IC50 is about 13-fold higher.
For `O=C(Nc1ccc(F)cc1)c1ccc[nH]c1=O`, the IC50 is 32 µM.
On the same count and under the same terms, to `COc1ccc(NC(=O)c2ccc(=O)[nH]c2)cc1` belongs 86 µM; to `O=C(Nc1cc(Cl)cc(Cl)c1)c1cnc(O)c(Cl)c1`, 29 µM.
Same read-out and setting: to `Cc1ccc(NC(=O)c2c[nH]c(=O)c(Cl)c2)cc1` belongs 95 µM.
Still for that read-out and setting: to `O=C(Nc1ccc(Cl)cc1)c1cccnc1O` belongs 28 µM; to `O=C(Nc1ccc(Cl)cc1)c1c[nH]c(=O)c(Cl)c1`, 2.7 µM.

For the origin of these results see ChEMBL document CHEMBL1641599, “Design of novel N-phenylnicotinamides as selective cyclooxygenase-1 inhibitors” (Bioorg Med Chem Lett, 2011).
